Reference: patent US9340522B2, “Pyrazolone-derivatives and their use as PDE-4 inhibitors” (TAKEDA GMBH, priority 2008, dated 2016)
Read-outs that look alike come from different tables or passages of the source.

How the values were obtained:
[1] = system: LPS-induced pulmonary inflammation model in rats; assay: LPS-induced pulmonary inflammation model in rats (Method A); type: in vivo; settings: Rattus norvegicus, inhaled or nasal, dosage of 1 mg/kg, intratracheal dry powder insufflation 2 h prior LPS challenge, BALF 16 h after LPS, in comparison to the placebo group
Protocol: Exposure of rats to aerosolized lipopolysaccharide (LPS) causes a pulmonary mainly neutrophilic inflammation, which can be assessed by bronchoalveolar lavage (BAL). LPS-induced pulmonary inflammation models are robust and are commonly used for the evaluation of test compounds modulating the immediate immune response. Phosphodiesterase-4 inhibitors are administered by intratracheal dry powder insufflation 2 h prior nose-only LPS challenge in rats. The antiinflammatory activity of the phosphodiesterase inhibitors is assessed based on pulmonary total leukocyte and neutrophil counts in the bronchoalveolar lavage fluid 16 h after LPS exposure.
Male Sprague Dawley rats weighing 250-300 g are used. Rats are delivered 1 weak prior to the experiments and have free access to water and food.
The test compound in crystalline and micronized state is blended with lactose for inhalation ad 10 mg/kg (Respitose® SV003, DMV International, Netherlands). Respitose® and test compound are transferred to 12 ml tubes and are blended for 10 min. Dilution series are prepared from the this stock blend.
A device consisting of an Abbocath®-T catheter (18G×51 mm), a one-way stop-cock and a 5 ml syringe is used for test compound insufflation. Weighed test compound blends are directly filled in the stop-cocks. Intubation of the rats is guided by sight and is done under a short time halothane anesthesia.
The administered dose of the blended material is 10 mg/kg. The expected material loss in the device is 25%, therefore the weighted dose used is 12.5 mg/kg. One day before the experiment the rat body weights are documented and the mean body weight is used to calculate the administered blend dose per rat. LPS challenged and unchallenged control animals received drug-free Respitose® as placebo. Test compound blends and Respitose are administered 2 h prior LPS challenge.
Conscious and restrained animals are connected to a nose-only exposure system (CR equipment SA, Tannay, Switzerland) and are exposed to the LPS aerosol for 30 min. The LPS-containing aerosol is generated using a compressed air driven medication nebulizer device (OCTURNO Medizintechnik GmbH, Germany). The LPS solution (E. coli, Serotype 055B5, Art.#L2880, Lot#114K4103, Sigma-Aldrich; 0.15 mg/ml, diluted in 0.1% hydroxylamine/PBS) is continuously delivered by a syringe pump (20 ml/h) to the nebulizer device. The aerosol is dispersed and transported to the exposure tower by admixture of compressed air. All rats except negative controls are exposed to LPS.
Sixteen hours after LPS challenge, animals are sacrificed with Trapanal (thiopental, […], 2 ml/rat, i.p.), the final body weights are determined and BALs are performed. For the BAL the trachea is exposed and cannulated, followed by gently lavaging the lungs three times in situ with 4 ml PBS buffer.
Determination of total leukocyte and neutrophil counts in BALF is performed with an automated leukocyte differentiation system (XT-20001V, Sysmex, Norderstedt, Germany).
Suppression of LPS-induced total cell and neutrophil influx into the lungs is calculated in % using the means of the cell counts of each treatment group in relation to the control groups:
Statistical analysis is performed on the primary cell count data using one-way ANOVA and Dunnett's multiple comparison post test vs. positive control. The Grubbs test is used to detect outliers.

[2] = Neutrophil, read-out: reduction of neutrophils
[3] = read-out: reduction of the total cell count

In the case of COC(=O)c1ccccc1S(=O)(=O)N1CCC(N2N=C(c3ccc(OC)c(OC)c3)C(C)(C)C2=O)CC1 [Compound 2, Methyl 2-({4-[3-(3,4-dimethoxyphenyl)-4,4-dimethyl-5-oxo-4,5-dihydro-1H-pyrazol-1-yl]piperidin-1-yl}sulfonyl)benzoate], the inhibition in vivo at 1 mg/kg [1, 2] is reported as 15 to 53% and the inhibition in vivo at 1 mg/kg [1, 3] is reported as 22 to 60%.

Molecule COc1ccc(C2=NN(C3CCN(S(=O)(=O)c4c(C(C)C)cc(C(C)C)cc4C(C)C)CC3)C(=O)C2(C)C)cc1OC [Compound 9, 5-(3,4-Dimethoxyphenyl)-4,4-dimethyl-2-(1-{[2,4,6-tri(propan-2-yl)phenyl]sulfonyl}piperidin-4-yl)-2,4-dihydro-3H-pyrazol-3-one] has an inhibition in vivo at 1 mg/kg [1, 2] of 15 to 53% and an inhibition in vivo at 1 mg/kg [1, 3] of 22 to 60%.

For COc1ccc(C2=NN(C3CCN(S(=O)(=O)c4cccc(C)c4)CC3)C(=O)C2(C)C)cc1OC [Compound 11, 5-(3,4-Dimethoxyphenyl)-4,4-dimethyl-2-{1-[(3-methylphenyl)sulfonyl]piperidin-4-yl}-2,4-dihydro-3H-pyrazol-3-one], the inhibition in vivo at 1 mg/kg [1, 2] was 15 to 53% and the inhibition in vivo at 1 mg/kg [1, 3] was 22 to 60%.

COc1ccc(C2=NN(C3CCN(S(=O)(=O)c4ccccc4F)CC3)C(=O)C2(C)C)cc1OC [Compound 14, 5-(3,4-Dimethoxyphenyl)-2-{1-[(2-fluorophenyl)sulfonyl]piperidin-4-yl}-4,4-dimethyl-2,4-dihydro-3H-pyrazol-3-one] gave an inhibition in vivo at 1 mg/kg [1, 2] of 15 to 53% and an inhibition in vivo at 1 mg/kg [1, 3] of 22 to 60%.

In the case of COc1ccc(C2=NN(C3CCN(S(=O)(=O)c4ccccc4C(F)(F)F)CC3)C(=O)C2(C)C)cc1OC [Compound 18, 5-(3,4-Dimethoxyphenyl)-4,4-dimethyl-2-(1-{[2-(trifluoromethyl)phenyl]sulfonyl}piperidin-4-yl)-2,4-dihydro-3H-pyrazol-3-one], the inhibition in vivo at 1 mg/kg [1, 2] is reported as 15 to 53% and the inhibition in vivo at 1 mg/kg [1, 3] is reported as 22 to 60%.

With COc1ccc(C2=NN(C3CCN(S(=O)(=O)c4cccc(C(=O)O)c4)CC3)C(=O)C2(C)C)cc1OC [Compound 25, 3-({4-[3-(3,4-Dimethoxyphenyl)-4,4-dimethyl-5-oxo-4,5-dihydro-1H-pyrazol-1-yl]piperidin-1-yl}sulfonyl)benzoic acid] the melting point was 244 °C.

Work on COC(=O)c1cccc(S(=O)(=O)N2CCC(N3N=C(c4ccc(OC)c(OC)c4)C(C)(C)C3=O)CC2)c1 [Compound 26, Methyl 3-({4-[3-(3,4-dimethoxyphenyl)-4,4-dimethyl-5-oxo-4,5-dihydro-1H-pyrazol-1-yl]piperidin-1-yl}sulfonyl)benzoate] yielded a melting point of 214 °C.

In the case of COc1cc(C2=NN(C3CCN(S(=O)(=O)c4cccc(C)c4)CC3)C(=O)C2(C)C)cc2c1OC(C)(C)C2 [Compound 32, 5-(7-Methoxy-2,2-dimethyl-2,3-dihydro-1-benzofuran-5-yl)-4,4-dimethyl-2-{1-[(3-methylphenyl)sulfonyl]piperidin-4-yl}-2,4-dihydro-3H-pyrazol-3-one], the melting point is reported as 183 °C.

Molecule COc1ccc(C2=NN(C3CCN(C(=O)c4cc5ccccc5[nH]4)CC3)C(=O)C2(C)C)cc1OC [Compound 61, 5-(3,4-Dimethoxyphenyl)-2-[1-(1H-indol-2-ylcarbonyl)piperidin-4-yl]-4,4-dimethyl-2,4-dihydro-3H-pyrazol-3-one] has a melting point of 265 °C.

Molecule COc1cccc(C(=O)N2CCC(N3N=C(c4ccc(OC)c(OC)c4)C(C)(C)C3=O)CC2)c1 [Compound 65, 5-(3,4-Dimethoxyphenyl)-2-{1-[(3-methoxyphenyl)carbonyl]piperidin-4-yl}-4,4-dimethyl-2,4-dihydro-3H-pyrazol-3-one] has an inhibition in vivo at 1 mg/kg [1, 2] of 15 to 53% and an inhibition in vivo at 1 mg/kg [1, 3] of 22 to 60%.

Work on COc1ccc(C2=NN(C3CCN(C(=O)c4cccc5ccccc45)CC3)C(=O)C2(C)C)cc1OC [Compound 68, 5-(3,4-Dimethoxyphenyl)-4,4-dimethyl-2-[1-(naphthalen-1-ylcarbonyl)piperidin-4-yl]-2,4-dihydro-3H-pyrazol-3-one] yielded an inhibition in vivo at 1 mg/kg [1, 2] of 15 to 53% and an inhibition in vivo at 1 mg/kg [1, 3] of 22 to 60%.

With COc1ccc(C2=NN(C3CCN(C(=O)c4cccc(Cl)c4)CC3)C(=O)C2(C)C)cc1OC [Compound 69, 2-{1-[(3-Chlorophenyl)carbonyl]piperidin-4-yl}-5-(3,4-dimethoxyphenyl)-4,4-dimethyl-2,4-dihydro-3H-pyrazol-3-one] the inhibition in vivo at 1 mg/kg [1, 2] was 15 to 53% and the inhibition in vivo at 1 mg/kg [1, 3] was 22 to 60%.

In the case of CCOc1cccc(C(=O)N2CCC(N3N=C(c4ccc(OC)c(OC)c4)C(C)(C)C3=O)CC2)c1 [Compound 70, 5-(3,4-Dimethoxyphenyl)-2-{1-[(3-ethoxyphenyl)carbonyl]piperidin-4-yl}-4,4-dimethyl-2,4-dihydro-3H-pyrazol-3-one], the melting point is reported as 154 to 156 °C, the inhibition in vivo at 1 mg/kg [1, 2] is reported as 15 to 53% and the inhibition in vivo at 1 mg/kg [1, 3] is reported as 22 to 60%.

COc1ccc(C2=NN(C3CCN(C(=O)c4ccccc4Br)CC3)C(=O)C2(C)C)cc1OC [Compound 72, 2-{1-[(2-Bromophenyl)carbonyl]piperidin-4-yl}-5-(3,4-dimethoxyphenyl)-4,4-dimethyl-2,4-dihydro-3H-pyrazol-3-one] gave an inhibition in vivo at 1 mg/kg [1, 2] of 15 to 53% and an inhibition in vivo at 1 mg/kg [1, 3] of 22 to 60%.

COc1ccc(C2=NN(C3CCN(C(=O)c4cc(OCc5ccccc5)ccc4C)CC3)C(=O)C2(C)C)cc1OC [Compound 84, 2-(1-{[5-(Benzyloxy)-2-methylphenyl]carbonyl}piperidin-4-yl)-5-(3,4-dimethoxyphenyl)-4,4-dimethyl-2,4-dihydro-3H-pyrazol-3-one] showed an inhibition in vivo at 1 mg/kg [1, 2] of 15 to 53% and an inhibition in vivo at 1 mg/kg [1, 3] of 22 to 60%.

COc1ccc(C2=NN(C3CCN(C(=O)c4cc(O)ccc4C)CC3)C(=O)C2(C)C)cc1OC [Compound 85, 5-(3,4-Dimethoxyphenyl)-2-{1-[(5-hydroxy-2-methylphenyl)carbonyl]piperidin-4-yl}-4,4-dimethyl-2,4-dihydro-3H-pyrazol-3-one] gave a melting point of 214 to 215 °C, an inhibition in vivo at 1 mg/kg [1, 2] of 15 to 53% and an inhibition in vivo at 1 mg/kg [1, 3] of 22 to 60%.

For COc1ccc(C2=NN(C3CCN(C(=O)c4cc(O)ccc4F)CC3)C(=O)C2(C)C)cc1OC [Compound 90, 5-(3,4-Dimethoxyphenyl)-2-{1-[(2-fluoro-5-hydroxyphenyl)carbonyl]piperidin-4-yl}-4,4-dimethyl-2,4-dihydro-3H-pyrazol-3-one], the inhibition in vivo at 1 mg/kg [1, 2] was 15 to 53% and the inhibition in vivo at 1 mg/kg [1, 3] was 22 to 60%.

COc1ccc(C2=NN(C3CCN(C(=O)c4ccccc4O)CC3)C(=O)C2(C)C)cc1OC [Compound 94, 5-(3,4-Dimethoxyphenyl)-2-{1-[(2-hydroxyphenyl)carbonyl]piperidin-4-yl}-4,4-dimethyl-2,4-dihydro-3H-pyrazol-3-one] gave a melting point of 212 to 213 °C, an inhibition in vivo at 1 mg/kg [1, 2] of 15 to 53% and an inhibition in vivo at 1 mg/kg [1, 3] of 22 to 60%.

In the case of COc1ccc(C2=NN(C3CCN(C(=O)c4ccccc4OC4CCCC4)CC3)C(=O)C2(C)C)cc1OC [Compound 96, 2-(1-{[2-(Cyclopentyloxy)phenyl]carbonyl}piperidin-4-yl)-5-(3,4-dimethoxyphenyl)-4,4-dimethyl-2,4-dihydro-3H-pyrazol-3-one], the melting point is reported as 176 °C, the inhibition in vivo at 1 mg/kg [1, 2] is reported as 15 to 53% and the inhibition in vivo at 1 mg/kg [1, 3] is reported as 22 to 60%.

COc1ccc(C2=NN(C3CCN(C(=O)c4ccccc4OCC(N)=O)CC3)C(=O)C2(C)C)cc1OC [Compound 97, 2-[2-({4-[3-(3,4-Dimethoxyphenyl)-4,4-dimethyl-5-oxo-4,5-dihydro-1H-pyrazol-1-yl]piperidin-1-yl}carbonyl)phenoxy]acetamide] gave an inhibition in vivo at 1 mg/kg [1, 2] of 15 to 53% and an inhibition in vivo at 1 mg/kg [1, 3] of 22 to 60%.
